Experimental findings from ChEMBL document CHEMBL1121463, “N-Acetyl-[2-(O-methyl)tyrosine]arginine-vasopressin, an interesting antagonist of the vasopressor response to vasopressin” (J Med Chem, 1980) are described below.

Where a SMILES comes first, the peptide text is derived from it. Bridges are numbered along the chain shown (N, C = ends).

The species entered for data set [1] is Rattus norvegicus. Put plainly: Tested for anti-oxytocic activity against isolated rat uterus. It is filed as functional. To be noted: read-out: pA2 (converted).
For data set [2], the species on record is Rattus norvegicus. The data set is described as follows: Tested for anti-oxytocic activity against isolated rat uterus; Showed both agonistic and antagonistic activities. It is filed as functional.
The species entered for data set [3] is Rattus norvegicus. Put plainly: Compound was tested for anti-vasopressor activity against rat; Weak. The format is functional, organism-based.
The species entered for data set [4] is Rattus norvegicus. Put plainly: Compound was tested for anti-vasopressor activity against rat; Inhibitor. The format is functional, organism-based.
Data set [5] is filed under the species Rattus norvegicus. The data set is described as follows: The anti-oxytocic pA2 value (antagonistic) of compound was tested on isolated rat uterus (with the 0.5 mM Mg+2). The format is functional. To be noted: read-out: pA2 (converted).
Data set [6] is filed under the species Rattus norvegicus. Put plainly: Compound was tested for antidiuretic activity in rats. It is filed as ADME, organism-based, Urine. The settings on record: in vivo.
Data set [7] is filed under the species Rattus norvegicus. The data set is described as follows: Tested for antidiuretic activity against rats. It is filed as functional, Urine.
The species named for data set [8] is Rattus norvegicus. The data set is described as follows: The vasopressor value (agonistic) of compound was tested on rat […]. The format is functional.
For data set [9], the species on record is Rattus norvegicus. The data set is described as follows: Compound was tested for anti-vasopressor activity against rat. The format is functional, organism-based. The settings on record: read-out: pA2 (converted).

As to `CC[C@H](C)[C@@H]1NC(=O)[C@H](Cc2ccc(OC)cc2)NC(=O)[C@@H](NC(N)=O)CSSC[C@@H](C(=O)N2CCC[C@H]2C(=O)N[C@@H](CC(C)C)C(=O)NCC(N)=O)NC(=O)[C@H](CC(N)=O)NC(=O)[C@H](CCC(N)=O)NC1=O`, the Kb in the data set filed under Rattus norvegicus [1] is 0.0603 µM. For `CC[C@H](C)[C@@H]1NC(=O)[C@@H](Cc2ccc(OC)cc2)NC(=O)[C@H](N)CSSC[C@@H](C(=O)N2CCC[C@@H]2C(=O)N[C@@H](CC(C)C)C(=O)NCC(N)=O)NC(=O)[C@H](CC(N)=O)NC(=O)[C@@H](CCC(N)=O)NC1=O`, the pA2 entry in the data set listed under Rattus norvegicus [2] is “Mixed”; in the data set listed under Rattus norvegicus [3] it was “Weak”.

For `CC[C@H](C)[C@@H]1NC(=O)[C@@H](Cc2ccc(OC)cc2)NC(=O)[C@H](NC(C)=O)CSSC[C@@H](C(=O)N2CCC[C@@H]2C(=O)N[C@@H](CC(C)C)C(=O)NCC(N)=O)NC(=O)[C@H](CC(N)=O)NC(=O)[C@@H](CCC(N)=O)NC1=O`, the pA2 result in the data set filed under Rattus norvegicus [4] was “Inhibition”. As for `CC[C@H](C)[C@@H]1NC(=O)[C@H](Cc2ccc(OC)cc2)NC(=O)[C@@H](NC(C)=O)CSSC[C@@H](C(=O)N2CCC[C@H]2C(=O)N[C@@H](CC(C)C)C(=O)NCC(N)=O)NC(=O)[C@H](CC(N)=O)NC(=O)[C@H](CCC(N)=O)NC1=O`, the Kb in the data set filed under Rattus norvegicus [1] is 0.0263 µM. As for `COc1ccc(C[C@@H]2NC(=O)[C@@H](N)CSSC[C@@H](C(=O)N3CCC[C@H]3C(=O)N[C@@H](CCCN=C(N)N)C(=O)NCC(N)=O)NC(=O)[C@H](CC(N)=O)NC(=O)[C@H](CCC(N)=O)NC(=O)[C@H](Cc3ccccc3)NC2=O)cc1` [listing 1 of 2 here], the Kb in the data set filed under Rattus norvegicus [1] is 0.0363 µM; in the data set filed under Rattus norvegicus [5] it was 0.457 µM. Turning to `CC[C@H](C)[C@@H]1NC(=O)[C@@H](Cc2ccc(OC)cc2)NC(=O)[C@H](NC(N)=O)CSSC[C@@H](C(=O)N2CCC[C@@H]2C(=O)N[C@@H](CC(C)C)C(=O)NCC(N)=O)NC(=O)[C@H](CC(N)=O)NC(=O)[C@@H](CCC(N)=O)NC1=O`, the pA2 result in the data set listed under Rattus norvegicus [4] is on record as “Inhibition”. For `NC(=O)CC[C@@H]1NC(=O)[C@H](Cc2ccccc2)NC(=O)[C@H](Cc2ccc(O)cc2)NC(=O)[C@@H](N)CSSC[C@@H](C(=O)N2CCC[C@H]2C(=O)N[C@@H](CCCN=C(N)N)C(=O)NCC(N)=O)NC(=O)[C@H](CC(N)=O)NC1=O` (stereo in doubt; form 2) [VASOPRESSIN], the Antidiuretic in the data set filed under Rattus norvegicus [6] turned out to be 212 U/mg.

In turn, `CC[C@H](C)[C@@H]1NC(=O)[C@H](Cc2ccc(OC)cc2)NC(=O)[C@@H](N)CSSC[C@@H](C(=O)N2CCC[C@H]2C(=O)N[C@@H](CC(C)C)C(=O)NCC(N)=O)NC(=O)[C@H](CC(N)=O)NC(=O)[C@H](CCC(N)=O)NC1=O` showed an Antidiuretic in the data set listed under Rattus norvegicus [7] of 0.01 U/mg. The compound `CC[C@H](C)[C@@H]1NC(=O)[C@H](Cc2ccc(O)cc2)NC(=O)[C@@H](N)CSSC[C@@H](C(=O)N2CCC[C@H]2C(=O)N[C@@H](CC(C)C)C(=O)NCC(N)=O)NC(=O)[C@H](CC(N)=O)NC(=O)[C@H](CCC(N)=O)NC1=O` [OXYTOCIN] had an Antidiuretic in the data set filed under Rattus norvegicus [6] of 4 U/mg. For the compound `COc1ccc(C[C@@H]2NC(=O)[C@@H](N)CSSC[C@@H](C(=O)N3CCC[C@H]3C(=O)N[C@@H](CCCN=C(N)N)C(=O)NCC(N)=O)NC(=O)[C@H](CC(N)=O)NC(=O)[C@H](CCC(N)=O)NC(=O)[C@H](Cc3ccccc3)NC2=O)cc1` [listing 2 of 2 here], the Antidiuretic in the data set filed under Rattus norvegicus [7] came to 386 U/mg. Besides, in the data set filed under Rattus norvegicus [8], the Vasopressor activity came to 9.7 units/mg. As for `COc1ccc(C[C@@H]2NC(=O)[C@@H](NC(C)=O)CSSC[C@@H](C(=O)N3CCC[C@H]3C(=O)N[C@@H](CCCN=C(N)N)C(=O)NCC(N)=O)NC(=O)[C@H](CC(N)=O)NC(=O)[C@H](CCC(N)=O)NC(=O)[C@H](Cc3ccccc3)NC2=O)cc1` [listing 1 of 2 here], the values for the Kb in the data set filed under Rattus norvegicus [1], in the data set filed under Rattus norvegicus [5] and in the data set listed under Rattus norvegicus [9] were 0.0513 µM, 0.186 µM and 0.0661 µM, respectively. In the case of `NC(=O)CC[C@@H]1NC(=O)[C@H](Cc2ccccc2)NC(=O)[C@H](Cc2ccc(O)cc2)NC(=O)[C@@H](N)CSSC[C@@H](C(=O)N2CCC[C@H]2C(=O)N[C@@H](CCCN=C(N)N)C(=O)NCC(N)=O)NC(=O)[C@H](CC(N)=O)NC1=O` (stereo in doubt; form 1) [VASOPRESSIN], the Antidiuretic in the data set filed under Rattus norvegicus [6] came out at 323 U/mg. Regarding `CC[C@H](C)[C@@H]1NC(=O)[C@H](Cc2ccc(OC)cc2)NC(=O)[C@@H](NC(=O)CN)CSSC[C@@H](C(=O)N2CCC[C@H]2C(=O)N[C@@H](CC(C)C)C(=O)NCC(N)=O)NC(=O)[C@H](CC(N)=O)NC(=O)[C@H](CCC(N)=O)NC1=O` (H-GCY(Me)IQNCPLG-NH2; disulfide 2-7), the Kb in the data set filed under Rattus norvegicus [1] is 0.141 µM.

In the case of `COc1ccc(C[C@@H]2NC(=O)[C@@H](NC(C)=O)CSSC[C@@H](C(=O)N3CCC[C@H]3C(=O)N[C@@H](CCCN=C(N)N)C(=O)NCC(N)=O)NC(=O)[C@H](CC(N)=O)NC(=O)[C@H](CCC(N)=O)NC(=O)[C@H](Cc3ccccc3)NC2=O)cc1` [listing 2 of 2 here], the Antidiuretic in the data set listed under Rattus norvegicus [7] stood at 0.026 U/mg.

Turning to `CC[C@H](C)[C@@H]1NC(=O)[C@H](Cc2ccc(OC)cc2)NC(=O)[C@@H](NC(=O)CNC)CSSC[C@@H](C(=O)N2CCC[C@H]2C(=O)N[C@@H](CC(C)C)C(=O)NCC(N)=O)NC(=O)[C@H](CC(N)=O)NC(=O)[C@H](CCC(N)=O)NC1=O`, in the data set listed under Rattus norvegicus [1], the Kb was 0.302 µM.
